Results taken from the NIST ThermoML archive (doi:10.1021/je700287u).

Assay: xn = mol fraction of the nth substance listed
Settings: Liquid

CN(CCO)CCO [N-methyldiethanolamine] + O
Settings	mass density [kg/m3]
352.84 K, 15989 kPa, x1 = 0.1302	1010.4
352.84 K, 16976 kPa, x1 = 0.1302	1010.8
352.84 K, 17977 kPa, x1 = 0.1302	1011.2
352.84 K, 18979 kPa, x1 = 0.1302	1011.6
352.84 K, 19995 kPa, x1 = 0.1302	1012
352.85 K, 1004 kPa, x1 = 0.0369	983.9
352.85 K, 2037 kPa, x1 = 0.0369	984.4
352.85 K, 2962 kPa, x1 = 0.0369	984.8
352.85 K, 4014 kPa, x1 = 0.0369	985.2
352.85 K, 4994 kPa, x1 = 0.0369	985.6
352.85 K, 6034 kPa, x1 = 0.0369	986.1
352.85 K, 6999 kPa, x1 = 0.0369	986.5
352.85 K, 8019 kPa, x1 = 0.0369	987
352.85 K, 8987 kPa, x1 = 0.0369	987.3
352.85 K, 9992 kPa, x1 = 0.0369	987.8
352.85 K, 10987 kPa, x1 = 0.0369	988.2
352.85 K, 11994 kPa, x1 = 0.0369	988.6
352.85 K, 12978 kPa, x1 = 0.0369	989.1
352.85 K, 13987 kPa, x1 = 0.0369	989.4
352.85 K, 14998 kPa, x1 = 0.0369	989.9
352.85 K, 15956 kPa, x1 = 0.0369	990.2
352.85 K, 16987 kPa, x1 = 0.0369	990.7
352.85 K, 17991 kPa, x1 = 0.0369	991.1
352.85 K, 18986 kPa, x1 = 0.0369	991.5
352.85 K, 19988 kPa, x1 = 0.0369	991.9
352.88 K, 1037 kPa, x1 = 0.0893	998.6
352.88 K, 2010 kPa, x1 = 0.0893	999
352.88 K, 3005 kPa, x1 = 0.0893	999.5
352.88 K, 4010 kPa, x1 = 0.0893	999.9
352.88 K, 4999 kPa, x1 = 0.0893	1000.3
352.88 K, 5993 kPa, x1 = 0.0893	1000.7
352.88 K, 7000 kPa, x1 = 0.0893	1001.1
352.88 K, 7998 kPa, x1 = 0.0893	1001.6
352.88 K, 8982 kPa, x1 = 0.0893	1002
352.88 K, 9977 kPa, x1 = 0.0893	1002.4
352.88 K, 10995 kPa, x1 = 0.0893	1002.8
352.88 K, 11987 kPa, x1 = 0.0893	1003.3
352.88 K, 12999 kPa, x1 = 0.0893	1003.7
352.88 K, 13990 kPa, x1 = 0.0893	1004.1
352.88 K, 14969 kPa, x1 = 0.0893	1004.5
352.88 K, 15990 kPa, x1 = 0.0893	1004.9
352.88 K, 16991 kPa, x1 = 0.0893	1005.3
352.88 K, 18009 kPa, x1 = 0.0893	1005.8
352.88 K, 18994 kPa, x1 = 0.0893	1006.2
352.88 K, 20015 kPa, x1 = 0.0893	1006.6
362.71 K, 1012 kPa, x1 = 0.0369	977.3
362.71 K, 2054 kPa, x1 = 0.0369	977.8
362.71 K, 3004 kPa, x1 = 0.0369	978.2
362.71 K, 3981 kPa, x1 = 0.0369	978.6
362.71 K, 4997 kPa, x1 = 0.0369	979.1
362.71 K, 6006 kPa, x1 = 0.0369	979.5
362.71 K, 7005 kPa, x1 = 0.0369	979.9
362.71 K, 7962 kPa, x1 = 0.0369	980.3
362.71 K, 8999 kPa, x1 = 0.0369	980.8
362.71 K, 9999 kPa, x1 = 0.0369	981.2
362.71 K, 10997 kPa, x1 = 0.0369	981.6
362.71 K, 11979 kPa, x1 = 0.0369	982
362.71 K, 12988 kPa, x1 = 0.0369	982.5
362.71 K, 13990 kPa, x1 = 0.0369	982.9
362.71 K, 14982 kPa, x1 = 0.0369	983.4
362.71 K, 15982 kPa, x1 = 0.0369	983.8
362.71 K, 16992 kPa, x1 = 0.0369	984.2
362.71 K, 17958 kPa, x1 = 0.0369	984.6
362.71 K, 18984 kPa, x1 = 0.0369	985.1
362.71 K, 19984 kPa, x1 = 0.0369	985.5
362.72 K, 1043 kPa, x1 = 0.1302	995.9
362.72 K, 2117 kPa, x1 = 0.1302	996.4
362.72 K, 3008 kPa, x1 = 0.1302	996.8
362.72 K, 3995 kPa, x1 = 0.1302	997.3
362.72 K, 5002 kPa, x1 = 0.1302	997.8
362.72 K, 5994 kPa, x1 = 0.1302	998.2
362.72 K, 6994 kPa, x1 = 0.1302	998.6
362.72 K, 8003 kPa, x1 = 0.1302	999.1
362.72 K, 8988 kPa, x1 = 0.1302	999.6
362.72 K, 9991 kPa, x1 = 0.1302	1000
362.72 K, 11003 kPa, x1 = 0.1302	1000.4
362.72 K, 12036 kPa, x1 = 0.1302	1000.9
362.72 K, 13005 kPa, x1 = 0.1302	1001.3
362.72 K, 13983 kPa, x1 = 0.1302	1001.7
362.72 K, 14984 kPa, x1 = 0.1302	1002.2
362.72 K, 15981 kPa, x1 = 0.1302	1002.6
362.72 K, 16993 kPa, x1 = 0.1302	1003
362.72 K, 17988 kPa, x1 = 0.1302	1003.5
362.72 K, 18994 kPa, x1 = 0.1302	1003.9
362.72 K, 19995 kPa, x1 = 0.1302	1004.4
362.75 K, 993 kPa, x1 = 0.0893	990.9
362.75 K, 2025 kPa, x1 = 0.0893	991.3
362.75 K, 3013 kPa, x1 = 0.0893	991.8
362.75 K, 3995 kPa, x1 = 0.0893	992.2
362.75 K, 5018 kPa, x1 = 0.0893	992.7
362.75 K, 6003 kPa, x1 = 0.0893	993.1
362.75 K, 6988 kPa, x1 = 0.0893	993.6
362.75 K, 8002 kPa, x1 = 0.0893	994
362.75 K, 8996 kPa, x1 = 0.0893	994.4
362.75 K, 10040 kPa, x1 = 0.0893	994.9
362.75 K, 11000 kPa, x1 = 0.0893	995.3
362.75 K, 11988 kPa, x1 = 0.0893	995.7
362.75 K, 12992 kPa, x1 = 0.0893	996.1
362.75 K, 13990 kPa, x1 = 0.0893	996.6
362.75 K, 14990 kPa, x1 = 0.0893	997
362.75 K, 15993 kPa, x1 = 0.0893	997.5
362.75 K, 17004 kPa, x1 = 0.0893	997.9
362.75 K, 17984 kPa, x1 = 0.0893	998.3
362.75 K, 19022 kPa, x1 = 0.0893	998.7
362.75 K, 19984 kPa, x1 = 0.0893	999.2
